Here are results for 13 molecules from US20230227466A1, “SUBSTITUTED THIENOPYRIMIDINES THAT INTERACT WITH THE RAS SUPERFAMILY FOR THE TREATMENT OF CANCERS, INFLAMMATORY DISEASES, RASOPATHIES, AND FIBROTIC DISEASE” (SHY Therapeutics, LLC, priority 2020, published 2023).

One test deals with KRas wild type (Homo sapiens, UniProt P01116). As to the kind of experiment: Ras GTP binding domain inhibition assay (labeled-GTP competition, cell-free). Set-up: made in house. The essentials:
(§1)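 His-tagged GTPases were coated at 10-30 μg/mL onto nickel plates overnight at 4° C, then exposed to compound (20 μM, or serial dilutions for IC50) in buffer with 1% DMSO for 3 h at room temperature, with or without 10-30 μg/mL His-Sos (556-1049) in the final hour. Cy3- or Cy5-GTP (100 nM, 45 min) binding was measured after washing.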

For a further test, the target named is Rac-1 (Homo sapiens, UniProt P63000). The description is as above. Also noted: made in house. The essentials: as §1
The target of another test is Rho-A (Homo sapiens, UniProt P61586). Described as above. Set-up: made in house. Put shortly:
as §1

Test [1] relates to ERK1/2 phosphorylation in Panc-1 cells. In words: Western ERK1/2 cell-based phosphorylation assay. Set-up: species or system human. Particulars: at 10 μM, values in brackets < > are activation %, not inhibition. Put shortly:
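Panc-1 cells starved overnight in 0.5% FBS, then exposed 6 h at 37 °C to compound at 10 μM final (0.3% DMSO) or serial dilutions for IC50. Stimulation with 1.5 ng/ml EGF for 15 min; phospho-ERK1/2 (Thr202/Tyr204) read by western blot on equal protein loads.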

Test [2] deals with Akt phosphorylation in Panc-1 cells. In words: Western AKT cell-based phosphorylation assay. Also noted: species or system human. Particulars: at 10 μM, values in brackets < > are activation %, not inhibition. The essentials:
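Panc-1 cells starved overnight in 0.5% FBS, exposed to compound at 10 μM (0.3% DMSO) for 6 h at 37° C, then stimulated with 1.5 ng/ml EGF for 15 min. Lysates probed by western blot with anti-phospho-Akt (Ser473), equal protein loading checked by Ponceau S.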

The mark [3] stands for this setting: with SOS, read-out: KRas wild type + SOS: % inh.
Setting [4] is: without SOS, read-out: KRas wild type: % inh.
Setting [5] is: with SOS, read-out: Rac-1 + SOS: % inh.
The mark [6] stands for this setting: without SOS, read-out: Rac-1: % inh.
[7] abbreviates: with SOS, read-out: Rho-A + SOS: % inh.
The mark [8] stands for this setting: without SOS, read-out: Rho-A: % inh.

Read-outs that look alike come from different tables or passages of the source. Where only a bound is given, the exact number is not on record here.

Regarding `O=C(c1nc(O)c2scc(-c3ccccn3)c2n1)N1CCOCC1` [Compound 22, (4-Hydroxy-7-(pyridin-2-yl)thieno[3,2-d]pyrimidin-2-yl)(morpholino)methanone], the inhibition at 20 µM at KRas wild type (setting [3]), at KRas wild type (setting [4]), at Rac-1 (setting [5]), at Rac-1 (setting [6]), at Rho-A (setting [7]) and at Rho-A (setting [8]) was 1 to 25% each time. Besides, the “% inh of ERK1/2 phosphorylation in PANC-1” value in test [1] is 0 (0% inhibition). Further, in test [2], the “% inh of AKT phosphorylation in PANC-1” value was 0 (0% inhibition).
Regarding `O=C(Nc1ccccc1)c1nc(O)c2scc(-c3ccccn3)c2n1` [Compound 23, 4-Hydroxy-N-phenyl-7-(pyridin-2-yl)thieno[3,2-d]pyrimidine-2-carboxamide], the inhibition at 20 µM on KRas wild type (setting [3]), on KRas wild type (setting [4]), on Rac-1 (setting [5]), on Rac-1 (setting [6]), on Rho-A (setting [7]) and on Rho-A (setting [8]) was 1 to 25% in each case. In addition, the “% inh of ERK1/2 phosphorylation in PANC-1” value in test [1] is 0 (0% inhibition). Besides, in test [2], the “% inh of AKT phosphorylation in PANC-1” value is listed as 0 (0% inhibition).
Take `O=C(Nc1ccccn1)c1nc(O)c2scc(-c3ccccn3)c2n1` [Compound 24, 4-Hydroxy-N,7-di(pyridin-2-yl)thieno[3,2-d]pyrimidine-2-carboxamide]: the inhibition at 20 µM at KRas wild type (setting [3]) was 1 to 25%; at KRas wild type (setting [4]), 1 to 25%; on Rac-1 (setting [5]), 1 to 25%; at Rac-1 (setting [6]), 0%; on Rho-A (setting [7]), 1 to 25%; on Rho-A (setting [8]) it was 1 to 25%. The “% inh of ERK1/2 phosphorylation in PANC-1” value in test [1] is 0 (0% inhibition). Also, the “% inh of AKT phosphorylation in PANC-1” value in test [2] is 0 (0% inhibition).
Take `Cc1sc2c(O)nc(-c3ccccn3)nc2c1-c1ccccn1` [Compound 26, 6-Methyl-2,7-di(pyridin-2-yl)thieno[3,2-d]pyrimidin-4-ol]: the inhibition at 20 µM lay within 51 to 75% on KRas wild type (setting [3]); 76 to 100% at KRas wild type (setting [4]); 76 to 100% on Rac-1 (setting [5]); 76 to 100% at Rac-1 (setting [6]); 76 to 100% on Rho-A (setting [7]); 76 to 100% at Rho-A (setting [8]). Further, the “% inh of ERK1/2 phosphorylation in PANC-1” value in test [1] was 0 (0% inhibition). For the same molecule, the “% inh of AKT phosphorylation in PANC-1” value in test [2] is recorded as 0 (0% inhibition).
`Cn1ccnc1-c1nc(O)c2scc(-c3ncccc3F)c2n1` [Compound 30, 7-(3-Fluoropyridin-2-yl)-2-(1-methyl-1H-imidazol-2-yl)thieno[3,2-d]pyrimidin-4-ol]: the inhibition at 20 µM lay within 76 to 100% at KRas wild type (setting [3]); 76 to 100% on KRas wild type (setting [4]); 51 to 75% at Rac-1 (setting [5]); 51 to 75% at Rac-1 (setting [6]); 76 to 100% at Rho-A (setting [7]); 76 to 100% on Rho-A (setting [8]). For the same molecule, the “% inh of ERK1/2 phosphorylation in PANC-1” value in test [1] is recorded as 0 (0% inhibition). The “% inh of AKT phosphorylation in PANC-1” value in test [2] is given as 0 (0% inhibition).
Turning to `CO[C@@H]1CC[C@H](Nc2nc(-c3nccn3C)nc3sc(-c4ccn(C(C)C)n4)c(C)c23)C1` [Compound 31, 6-(1-Isopropyl-1H-pyrazol-3-yl)-N-((1S,3R)-3-methoxycyclopentyl)-5-methyl-2-(1-methyl-1H-imidazol-2-yl)thieno[2,3-d]pyrimidin-4-amine], the inhibition at 20 µM at KRas wild type (setting [3]) is 76 to 100%; at KRas wild type (setting [4]) it was 26 to 50%; on Rac-1 (setting [5]) it was 26 to 50%; on Rho-A (setting [7]) it was 51 to 75%; at Rho-A (setting [8]), 51 to 75%. The “% inh of ERK1/2 phosphorylation in PANC-1” value in test [1] is “D (76-100% inhibition)”. For the same molecule, the “% inh of AKT phosphorylation in PANC-1” value in test [2] is reported as 0 (0% inhibition).
On to `CO[C@H]1CC[C@@H](Nc2nc(-c3nccn3C)nc3sc(-c4ccn(C(C)C)n4)c(C)c23)C1` [Compound 32, 6-(1-Isopropyl-1H-pyrazol-3-yl)-N-((1R,3S)-3-methoxycyclopentyl)-5-methyl-2-(1-methyl-1H-imidazol-2-yl)thieno[2,3-d]pyrimidin-4-amine], for which the inhibition at 20 µM on KRas wild type (setting [3]) was in the range of 76 to 100%; on KRas wild type (setting [4]), 76 to 100%; on Rac-1 (setting [5]), 26 to 50%; on Rac-1 (setting [6]), 26 to 50%; on Rho-A (setting [7]), 51 to 75%; at Rho-A (setting [8]), 51 to 75%. Further, the “% inh of ERK1/2 phosphorylation in PANC-1” value in test [1] was “D (76-100% inhibition)”. Also, in test [2], the “% inh of AKT phosphorylation in PANC-1” value is on record as 0 (0% inhibition).
As to `COCCNc1nc(-c2nccn2C)nc2sc(-c3ccn(C(C)C)n3)c(C)c12` [Compound 35, 6-(1-Isopropyl-1H-pyrazol-3-yl)-N-(2-methoxyethyl)-5-methyl-2-(1-methyl-1H-imidazol-2-yl)thieno[2,3-d]pyrimidin-4-amine], the inhibition at 20 µM on KRas wild type (setting [3]), at KRas wild type (setting [4]), at Rac-1 (setting [5]), at Rac-1 (setting [6]), at Rho-A (setting [7]) and on Rho-A (setting [8]) was 76 to 100% in each case. The “% inh of ERK1/2 phosphorylation in PANC-1” value in test [1] was 0 (0% inhibition). The “% inh of AKT phosphorylation in PANC-1” value in test [2] is 0 (0% inhibition).
As for `COCCCNc1nc(-c2nccn2C)nc2sc(-c3ccn(C(C)C)n3)c(C)c12` [Compound 36, 6-(1-Isopropyl-1H-pyrazol-3-yl)-N-(3-methoxypropyl)-5-methyl-2-(1-methyl-1H-imidazol-2-yl)thieno[2,3-d]pyrimidin-4-amine], the inhibition at 20 µM was in the range of 76 to 100% on KRas wild type (setting [3]); 76 to 100% at KRas wild type (setting [4]); 76 to 100% at Rac-1 (setting [5]); 76 to 100% on Rac-1 (setting [6]); 76 to 100% at Rho-A (setting [7]); 26 to 50% on Rho-A (setting [8]). In addition, the “% inh of ERK1/2 phosphorylation in PANC-1” value in test [1] is reported as “C (51-75% inhibition)”. Also, the “% inh of AKT phosphorylation in PANC-1” value in test [2] is given as 0 (0% inhibition).
For the molecule `CO[C@H]1CN(c2nc(-c3nccn3C)nc3sc(-c4ccn(C(C)C)n4)c(C)c23)C[C@H]1OC` [Compound 39, rac-4-((3S,4R)-3,4-Dimethoxypyrrolidin-1-yl)-6-(1-isopropyl-1H-pyrazol-3-yl)-5-methyl-2-(1-methyl-1H-imidazol-2-yl)thieno[2,3-d]pyrimidine], the inhibition at 20 µM at KRas wild type (setting [3]) fell in the range of 51 to 75%; on KRas wild type (setting [4]) it was 76 to 100%; at Rac-1 (setting [5]), 51 to 75%; on Rac-1 (setting [6]), 51 to 75%; at Rho-A (setting [7]) it was 76 to 100%; on Rho-A (setting [8]), 76 to 100%. Also, in test [1], the “% inh of ERK1/2 phosphorylation in PANC-1” value was 0 (0% inhibition). Also, the “% inh of AKT phosphorylation in PANC-1” value in test [2] is “<B>”.
For the molecule `CO[C@H]1C[C@@H](Nc2nc(-c3nccn3C)nc3sc(-c4ccn(C(C)C)n4)c(C)c23)C[C@H]1OC` [Compound 42, N-((1r,3R,4S)-3,4-Dimethoxycyclopentyl)-6-(1-isopropyl-1H-pyrazol-3-yl)-5-methyl-2-(1-methyl-1H-imidazol-2-yl)thieno[2,3-d]pyrimidin-4-amine], the inhibition at 20 µM on KRas wild type (setting [3]) lay in the range of 76 to 100%; at KRas wild type (setting [4]), 51 to 75%; at Rac-1 (setting [5]), 51 to 75%; on Rac-1 (setting [6]), 51 to 75%; on Rho-A (setting [7]), 76 to 100%; at Rho-A (setting [8]) it was 51 to 75%. The “% inh of ERK1/2 phosphorylation in PANC-1” value in test [1] is given as “B (26-50% inhibition)”. In addition, the “% inh of AKT phosphorylation in PANC-1” value in test [2] is listed as “<D>”.
As for `CO[C@H]1C[C@H](Nc2nc(-c3nccn3C)nc3sc(-c4ccn(C(C)C)n4)c(C)c23)C[C@H]1OC` [Compound 43, N-((1s,3R,4S)-3,4-Dimethoxycyclopentyl)-6-(1-isopropyl-1H-pyrazol-3-yl)-5-methyl-2-(1-methyl-1H-imidazol-2-yl)thieno[2,3-d]pyrimidin-4-amine], the inhibition at 20 µM was 76 to 100% at KRas wild type (setting [3]); 26 to 50% at KRas wild type (setting [4]); 51 to 75% at Rac-1 (setting [5]); 26 to 50% on Rac-1 (setting [6]); 76 to 100% at Rho-A (setting [7]); 76 to 100% at Rho-A (setting [8]). For the same molecule, the “% inh of ERK1/2 phosphorylation in PANC-1” value in test [1] is “B (26-50% inhibition)”. In addition, the “% inh of AKT phosphorylation in PANC-1” value in test [2] is on record as “<D>”.
For `Cc1c(-c2ccn(C(C)C)n2)sc2nc(-c3nccn3C)nc(NCCc3nnn[nH]3)c12` [Compound 46, N-(2-(1H-Tetrazol-5-yl)ethyl)-6-(1-isopropyl-1H-pyrazol-3-yl)-5-methyl-2-(1-methyl-1H-imidazol-2-yl)thieno[2,3-d]pyrimidin-4-amine], the inhibition at 20 µM was in the range of 51 to 75% on KRas wild type (setting [3]); 76 to 100% on KRas wild type (setting [4]); 76 to 100% on Rac-1 (setting [5]); 76 to 100% on Rac-1 (setting [6]); 76 to 100% on Rho-A (setting [7]); 76 to 100% at Rho-A (setting [8]). Moreover, the “% inh of ERK1/2 phosphorylation in PANC-1” value in test [1] is recorded as 0 (0% inhibition). The “% inh of AKT phosphorylation in PANC-1” value in test [2] was “A (1-25% inhibition)”.
